# According to the supplement of paper PMC10307832:
# How the values were obtained:
# Experiment in all cases: relative viability (nuclei count vs DMSO), 5 days (fraction); higher = more cells survive
# [1] = compound: C(C(=O)C(=O)O)Br [Bromopyruvate] + Nc1nc2[nH]cc(CCc3ccc(C(=O)N[C@@H](CCC(=O)O)C(=O)O)cc3)c2c(=O)[nH]1 [Pemetrexed] (partner 0.2 µM)
# In short: (§1)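 Nuclei were stained with Hoechst during a one-step fixation (final 0.05% Triton X-100, 1% formaldehyde, 1 ug/ml Hoechst) carried out 5 days after dosing, then counted on 4× images. The cells, lung cancer lines in 1536-well plates, had been dosed by pin tool the day after seeding with one drug alone or a fixed anchor-drug dose plus five library-drug doses (not always all listed) in √10 steps. Relative viability is the nuclei count in treated wells divided by that in vehicle wells, and each value is the median of duplicate plates.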
# Bicalutamide + OSI-027 = compound: CC(O)(CS(=O)(=O)c1ccc(F)cc1)C(=O)Nc1ccc(C#N)c(C(F)(F)F)c1 [Bicalutamide] + COc1cccc2cc(-c3nc([C@H]4CC[C@H](C(=O)O)CC4)n4ncnc(N)c34)[nH]c12 [OSI-027] (partner 0.5 µM)
# In short: as §1
# [2] = compound: CC(O)(CS(=O)(=O)c1ccc(F)cc1)C(=O)Nc1ccc(C#N)c(C(F)(F)F)c1 [Bicalutamide] + Nc1ncn([C@H]2C[C@H](O)[C@@H](CO)O2)c(=O)n1 [Decitabine] (partner 2 µM)
# In short: as §1
# Bicalutamide + Olaparib = compound: CC(O)(CS(=O)(=O)c1ccc(F)cc1)C(=O)Nc1ccc(C#N)c(C(F)(F)F)c1 [Bicalutamide] + O=C(c1cc(Cc2n[nH]c(=O)c3ccccc23)ccc1F)N1CCN(C(=O)C2CC2)CC1 [Olaparib] (partner 8 µM)
# In short: as §1
Cell Line,relative viability ([1]; first compound 1 µM),relative viability ([1]; first compound 3.162 µM),relative viability ([1]; first compound 10 µM),relative viability ([1]; first compound 31.62 µM),relative viability ([1]; first compound 100 µM),relative viability (Bicalutamide + OSI-027; first compound 0.08 µM),relative viability (Bicalutamide + OSI-027; first compound 0.253 µM),relative viability (Bicalutamide + OSI-027; first compound 0.8 µM),relative viability (Bicalutamide + OSI-027; first compound 2.53 µM),relative viability ([2]; first compound 0.08 µM),relative viability ([2]; first compound 0.253 µM),relative viability ([2]; first compound 0.8 µM),relative viability ([2]; first compound 2.53 µM),relative viability (Bicalutamide + Olaparib; first compound 0.08 µM),relative viability (Bicalutamide + Olaparib; first compound 0.253 µM),relative viability (Bicalutamide + Olaparib; first compound 0.8 µM),relative viability (Bicalutamide + Olaparib; first compound 2.53 µM)
NCI-H1975,0.276,0.3,0.292,0.326,0.292,0.741,0.642,0.746,0.633,0.384,0.36,0.436,0.408,0.81,0.772,1,0.59
NCI-H2009,1.01,1.04,0.936,0.868,1.11,0.756,0.641,0.74,0.347,0.356,0.37,0.405,0.38,0.675,0.702,0.715,0.667
SK-LU-1,0.998,0.961,1.02,0.886,0.874,0.371,0.39,0.358,0.276,0.689,0.611,0.791,0.61,0.502,0.482,0.633,0.486
NCI-H2347,0.42,0.471,0.486,0.44,0.43,0.395,0.327,0.515,0.427,0.583,0.651,0.628,0.634,0.518,0.555,0.62,0.54
HCC-366,0.17,0.174,0.146,0.203,0.2,0.955,0.848,1.08,0.718,0.369,0.284,0.351,0.327,0.361,0.323,0.444,0.286
EMC-BAC-2,0.422,0.45,0.451,0.479,0.453,0.404,0.374,0.364,0.246,0.976,0.875,0.948,0.892,0.528,0.462,0.494,0.397
NCI-H3122,0.209,0.193,0.186,0.183,0.192,0.951,0.905,1.25,0.881,0.4,0.45,0.449,0.455,0.536,0.657,0.712,0.617
NCI-H358,0.147,0.145,0.164,0.17,0.183,0.903,0.651,1.01,0.67,0.224,0.224,0.193,0.204,0.664,0.519,0.706,0.595
NCI-H1944,0.576,0.707,0.625,0.656,0.63,0.476,0.292,0.442,0.389,0.441,0.433,0.428,0.462,0.424,0.388,0.46,0.375
NCI-H2342,0.848,0.779,0.847,0.636,0.74,0.629,0.593,0.63,0.551,0.742,0.717,0.756,0.843,0.524,0.501,0.491,0.44
EPLC-272H,0.367,0.259,0.334,0.251,0.432,0.314,0.34,0.325,0.243,0.384,0.373,0.382,0.342,0.791,0.699,0.695,0.682
NCI-H1915,0.496,0.41,0.497,0.511,0.481,0.639,0.516,0.653,0.535,0.28,0.26,0.282,0.278,0.25,0.232,0.29,0.254
NCI-H647,0.17,0.162,0.156,0.184,0.177,0.543,0.628,0.79,0.585,0.601,0.328,0.34,0.338,0.571,0.384,0.591,0.381
NCI-H441,0.255,0.282,0.299,0.274,0.271,0.689,0.585,0.669,0.534,0.264,0.23,0.22,0.257,0.639,0.609,0.626,0.481
NCI-H23,0.71,0.76,0.808,0.619,0.812,0.721,0.544,0.605,0.495,0.312,0.36,0.311,0.297,0.342,0.3,0.323,0.341
NCI-H522,0.902,1.25,1.24,1.07,1.11,0.726,0.685,0.775,0.641,0.585,0.575,0.71,0.632,0.711,0.599,0.788,0.693
NCI-H650,0.971,0.924,0.81,0.989,0.941,0.559,0.507,0.524,0.432,0.318,0.308,0.333,0.335,0.373,0.395,0.401,0.396
SK-MES-1,0.999,0.974,0.941,0.94,1.01,0.601,0.607,0.665,0.491,0.497,0.374,0.405,0.416,0.825,0.711,0.773,0.561
